The source of these data is ChEMBL document CHEMBL3988442, “University of Dundee, Small-Polar-MMV Screening Library” (2021).

The nature of test [1]: microbe, parasite or virus in culture. The following applies: Mycobacterium tuberculosis, 72 h, read-out: pIC50 (converted).
Test [2] in a line: microbe, parasite or virus in culture. The following applies: Mycobacterium tuberculosis, 96 h, read-out: pIC50 (converted).

As to `CNc1cc(CN(C)Cc2cccs2)ccn1`, the IC50 in test [1] and in test [2] was 276 µM in each case.

For the molecule `O=C(CSc1ncccc1Br)N1CCCC1`, the IC50 in test [1] was 5.62 µM; in test [2], 70.3 µM.

As to `COc1ccc(Cl)c(S(=O)(=O)NCCC(C)N)c1` (centres undefined), the IC50 was 116 µM in test [1] and 187 µM in test [2].

For `CC(C)c1cccc(S(=O)(=O)N2CCCC2CN)c1` (centres undefined), the figures for the IC50 in test [1] and in test [2] were 399 µM and > 501 µM, respectively.

Consider `CC(C)c1csc(C(=O)N(C)c2ccc(Br)cn2)n1`, for which the IC50 in test [1] was 21.7 µM; in test [2] it was 25.3 µM.

For `CC(C)(C)Cc1nnc(NCc2ccsc2)o1`, the IC50 in test [1] was > 50.1 µM; in test [2] it was 12.5 µM.

Regarding `COC(=O)c1ccc(CCNC(=O)C2CCCO2)cc1` (centres undefined), the results for the IC50 in test [1] and in test [2] were 281 µM and 383 µM, respectively.

As for `COCCCN1CCN(c2ccccc2OC)CC1` [DIMETHOLIZINE], the IC50 was 346 µM in test [1] and > 501 µM in test [2].

Take `CNC1CCN(c2cc(OC)cc(OC)c2)C1` (centres undefined): the IC50 in test [1] is 309 µM; in test [2], 225 µM.

`COc1ccc(-c2nc(CN(C)Cc3nncn3C)c(C)o2)c(C)c1C`: the results for the IC50 in test [1] and in test [2] were 42.9 µM and 10.1 µM, respectively.

As for `CCCc1nc(N2CCCCCC2)c2c(n1)c(C)nn2CC`, the IC50 in test [1] was 23.6 µM; in test [2], 43.2 µM.

`CNCC(=O)Nc1cc(Cl)c(OCCOC)c(Cl)c1`: the IC50 in test [1] and in test [2] was > 501 µM throughout.

In the case of `COCCNCC(=O)Nc1cccc(CSC)c1`, the IC50 in test [1] was 374 µM; in test [2], > 501 µM.

In the case of `NC(=O)CCSCc1ccn(-c2ccccc2)n1`, the IC50 in test [1] is > 501 µM; in test [2], 229 µM.

Regarding `Cc1nn(C)cc1S(=O)(=O)NCC(c1ccccc1)N1CCCCCC1` (centres undefined), the IC50 in test [1] and in test [2] was > 50.1 µM each time.

Consider `N[C@@H](CO)C(=O)N1CCC(Cc2ccc(F)cc2)CC1`, for which the IC50 was 195 µM in test [1] and > 501 µM in test [2].

As to `NCc1ccc(Cl)cn1`, the IC50 in test [1] was 324 µM; in test [2], 249 µM.

`CC(C)CCOc1ccc(C(C)NC(=O)Cn2cccnc2=O)cc1` (centres undefined): the IC50 in test [1] is 8.35 µM; in test [2], 13.2 µM.

For `Cn1cc(Br)cc1C(=O)NCC1CCCO1` (centres undefined), the results for the IC50 in test [1] and in test [2] were 225 µM and > 501 µM, respectively.

`COC(=O)c1ccc(N2CCC(N(C)c3ccccc3)CC2)nn1`: the IC50 in test [1] was 37 µM; in test [2], 12.3 µM.

Turning to `Cc1cccc(N2CCN(CCCN)CC2)c1`, the IC50 in test [1] and in test [2] was > 501 µM throughout.

As for `FC(F)Oc1ccccc1CN1CCCC(c2nccn2CC2CC2)C1` (centres undefined), the IC50 in test [1] and in test [2] was > 50.1 µM throughout.

`Cc1cc(C(C)NC(=O)CN2CSCC2=O)c(C)s1` (centres undefined): the IC50 in test [1] is 274 µM; in test [2] it was > 501 µM.

As to `Cn1cc(CNC(=O)c2cccc(I)c2)cn1`, the IC50 is 166 µM in test [1] and 70.2 µM in test [2].

Regarding `Cc1nc(CNC(=O)CC2=CCCCC2)no1`, the IC50 in test [1] and in test [2] was > 501 µM throughout.

Take `CCC(C)NC(=O)c1cc(F)cc(F)c1` (centres undefined): the IC50 in test [1] was 130 µM; in test [2] it was 229 µM.

For the molecule `Cc1ccc(C2(O)CCNC2)cc1` (centres undefined), the IC50 was 181 µM in test [1] and > 501 µM in test [2].

In the case of `COc1ccc(C(=O)NCCCC2(C3OCCO3)CCOCC2)cc1`, the IC50 in test [1] and in test [2] was > 50.1 µM throughout.

In the case of `CN1CCC(N(C)CCC(=O)N2CCC(Cc3ccc(F)cc3)CC2)C1` (centres undefined), the figures for the IC50 in test [1] and in test [2] were 22 µM and > 50.1 µM, respectively.

On to `Cc1ccc(C(=O)NCc2ccc3c(c2)OCCO3)o1`, for which the IC50 in test [1] is 115 µM; in test [2], 71.5 µM.

Turning to `COc1ccc(CCN)cc1F`, the IC50 was 304 µM in test [1] and 247 µM in test [2].

Regarding `COc1cc(CCN)ccc1C`, the IC50 in test [1] is 303 µM; in test [2] it was 277 µM.

Consider `O=C(c1cc(C2CCCC2)no1)N1CCCCC1`, for which the IC50 is 2.4 µM in test [1] and 4.9 µM in test [2].

As for `CC(C)c1cc(C(=O)N(C)C(C)c2ccon2)on1` (centres undefined), the values for the IC50 in test [1] and in test [2] were > 501 µM and 437 µM, respectively.

As for `O=C1Nc2ccccc2NC12CCN(c1cccc(C(F)(F)F)n1)CC2`, the IC50 in test [1] and in test [2] was > 50.1 µM throughout.

For `Fc1cccc(-c2noc(C3CCCN3)n2)c1` (centres undefined), the IC50 in test [1] is 271 µM; in test [2], 286 µM.

As for `CC(=O)NCC(=O)N1CCc2nc(-c3ccccc3)nc(C)c2CC1`, the IC50 in test [1] and in test [2] was > 50.1 µM in each case.

Turning to `CCc1ccc(S(=O)(=O)N(C)CC(N)=O)s1`, the values for the IC50 in test [1] and in test [2] were 244 µM and > 501 µM, respectively.

Regarding `CC(Nc1ccc2c(c1)CCC2)c1nc(C2CC2)no1` (centres undefined), the IC50 is 0.704 µM in test [1] and 0.183 µM in test [2].

As for `NC(=O)CN1CCC(COCc2ccccc2)C1` (centres undefined), the IC50 in test [1] is 268 µM; in test [2], 292 µM.

As to `Clc1ccc(-c2nnc([C@H]3CCN(C4CCCCC4)C3)o2)cc1`, the values for the IC50 in test [1] and in test [2] were 7.04 µM and 24.2 µM, respectively.

As for `CCc1cccc(S(=O)(=O)N2CC[C@H](N)C2)c1`, the values for the IC50 in test [1] and in test [2] were 183 µM and > 501 µM, respectively.

On to `CC(CNC(=O)c1ccc(Cl)cn1)Cn1ccnc1` (centres undefined), for which the IC50 in test [1] was 159 µM; in test [2] it was 176 µM.

As for `COc1ccccc1-c1ncc(CN2C[C@@H](N(C)C)[C@H](C(C)C)C2)s1`, the IC50 in test [1] was 31.4 µM; in test [2], 25.4 µM.

In the case of `Cc1cccc(Cl)c1OCCN`, the IC50 is 319 µM in test [1] and > 501 µM in test [2].

As to `COc1cccc(CNc2ccccn2)c1O`, the IC50 in test [1] and in test [2] was > 501 µM in each case.

For `Cc1cc(C(=O)NCc2cccc(F)c2)no1`, the IC50 in test [1] is 52.9 µM; in test [2] it was 308 µM.

Consider `Cc1nnc(N2CC[C@@H](OCC3CC3)[C@@H](Cc3ccccc3)C2)s1`, for which the IC50 in test [1] is 38.3 µM; in test [2], > 50.1 µM.

On to `O=C(NCCOc1ncccc1Cl)c1ccsc1`, for which the IC50 in test [1] is 470 µM; in test [2], 145 µM.

Consider `COCCCSc1ccc(NCc2ccc(C)cn2)cc1`, for which the values for the IC50 in test [1] and in test [2] were > 50.1 µM and 49.1 µM, respectively.

For `CCS(=O)(=O)N(C)CCCNc1ccc(C)c(C#N)n1`, the IC50 in test [1] is 106 µM; in test [2], 84.2 µM.

Consider `O=C(CN1CCN(c2ccccc2)CC1)N1CCCC1`, for which the IC50 in test [1] and in test [2] was > 501 µM each time.

In the case of `CC(C)(C)c1cnc(CN2CCOCC2C(N)=O)o1` (centres undefined), the IC50 in test [1] is 158 µM; in test [2] it was > 501 µM.

With `CC(CCc1ccco1)NC(=O)Nc1cc(C(F)(F)F)c[nH]c1=O` (centres undefined), the IC50 in test [1] is 15.9 µM; in test [2] it was 43.3 µM.

On to `CN(C1CCCCC1)S(=O)(=O)NC1CCCCNC1=O` (centres undefined), for which the IC50 in test [1] and in test [2] was > 501 µM each time.

Regarding `O=c1c2sccc2nc2n1CCN(Cc1ccccc1C(F)(F)F)CC2`, the IC50 in test [1] and in test [2] was > 50.1 µM throughout.

On to `COc1ccc(C)cc1CN1CCn2cccc2C1C` (centres undefined), for which the values for the IC50 in test [1] and in test [2] were 18.5 µM and 45.6 µM, respectively.

As to `COc1cccc(N2CCC(N)C2)c1` (centres undefined), the figures for the IC50 in test [1] and in test [2] were 294 µM and 276 µM, respectively.

Turning to `COC(=O)NCC(=O)N(C)c1ccc2ccccc2c1`, the IC50 is 129 µM in test [1] and > 501 µM in test [2].

On to `COc1cccc(-n2nnc(C(=O)NC3CC3)c2C)c1`, for which the IC50 in test [1] was 232 µM; in test [2] it was 209 µM.

Turning to `c1ccc(C2=NN=C(NC3CC3)SC2)cc1`, the IC50 in test [1] was 230 µM; in test [2] it was 140 µM.

For `CCc1ccc(C(=O)NCc2ccccn2)o1`, the IC50 in test [1] is 40.5 µM; in test [2], 138 µM.

As to `COC(=O)C1CCN(C(=O)Cc2cccc(F)c2)CC1`, the IC50 in test [1] is 179 µM; in test [2], > 501 µM.

On to `Cc1ccc(CNC(=O)c2ccc(F)cc2)o1`, for which the IC50 in test [1] was 19.6 µM; in test [2], 47.3 µM.

Turning to `Nc1cc(-c2c[nH]nc2C2CCCCN2C(=O)C2CCCC2)ccn1` (centres undefined), the IC50 in test [1] and in test [2] was > 50.1 µM throughout.

`CN(Cc1cccc(F)c1)C(=O)c1cnccn1`: the IC50 in test [1] and in test [2] was > 501 µM in each case.

`CC(N)c1noc(-c2ccc(Cl)cc2)n1` (centres undefined): the IC50 in test [1] was 261 µM; in test [2], 375 µM.

Regarding `OCCOCCSc1n[nH]c(-c2cc(F)cc(F)c2)n1`, the IC50 in test [1] and in test [2] was > 501 µM each time.

On to `CCC[C@@H]1CN(Cc2ccc3c(c2)OCCO3)C[C@H]1C(=O)O`, for which the IC50 in test [1] and in test [2] was > 50.1 µM each time.

In the case of `COc1ccc(CN2CCCNCC2)cc1`, the IC50 was 258 µM in test [1] and 163 µM in test [2].

For `CN(C)c1cc(CNc2ccc(C#N)cn2)ccn1`, the results for the IC50 in test [1] and in test [2] were 205 µM and 453 µM, respectively.

On to `Cc1cnn(C2CCCN(C(=O)c3ccnc(N(C)C)c3)C2)c1` (centres undefined), for which the IC50 in test [1] and in test [2] was > 50.1 µM each time.

For the molecule `Cc1cnc(NC(=O)c2cccc(CN(C)Cc3ccno3)c2)s1`, the IC50 in test [1] is 36.1 µM; in test [2] it was 37.3 µM.

For `COCCC(=O)N1CCC(Nc2ncccc2Br)CC1`, the results for the IC50 in test [1] and in test [2] were > 501 µM and 288 µM, respectively.

For `Cc1cc(=O)[nH]c(SC(C)C(=O)N2CCC(NS(C)(=O)=O)CC2)n1` (centres undefined), the IC50 in test [1] and in test [2] was > 50.1 µM in each case.

Regarding `CC1CCN(S(=O)(=O)NC(C)Cc2ccco2)CC1` (centres undefined), the IC50 in test [1] and in test [2] was > 50.1 µM in each case.

Take `CNS(=O)(=O)c1ccc(NCc2ccco2)cc1OC`: the IC50 in test [1] is 437 µM; in test [2] it was 245 µM.

Take `O=C1[C@H]2CN(Cc3ccco3)C[C@H]2CN1c1ccsc1`: the IC50 was 8.77 µM in test [1] and 14.2 µM in test [2].

As to `CCc1noc(Cn2cnc3ccccc3c2=O)n1`, the IC50 in test [1] and in test [2] was > 501 µM each time.

`CC(NCc1ccc(OCC(N)=O)cc1)c1ccc(Cl)cc1Cl` (centres undefined): the IC50 is 49 µM in test [1] and 18.8 µM in test [2].

Regarding `NCCc1ccc(N2CCOCC2)c(F)c1`, the IC50 in test [1] is 154 µM; in test [2] it was 263 µM.

Regarding `CNC(=O)c1sc(NC2CC2)nc1C`, the IC50 in test [1] is 72.7 µM; in test [2], 88.1 µM.
